Experimental findings from patent US20250034135A1, “ANTI-APOPTOTIC PROTEIN BCL-2 INHIBITOR, PHARMACEUTICAL COMPOSITION AND USES THEREOF” (HANGZHOU HEALZEN THERAPEUTICS CO., LTD., priority 2021, published 2025) are described below.

Test [1] addresses BCL2 (Homo sapiens (Human), UniProt P10415). In words: Molecular level activity test of anti-apoptotic protein BCL2 (HTRF, binding to Bim peptide). The following applies: HTRF, binding of BCL2 to Bim peptide; read-out: BCL2 nM (inhibitory activity, IC50). A digest of the protocol:
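Competition binding format: recombinant His-BCL2 and a biotin-Bim peptide are incubated with compound for 1 h, followed by 4 h at room temperature with HTRF detection antibodies.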
A general note: In TR-FRET formats the signal depends on donor and acceptor labels being close together.

Test [2] has as its target BCL2 (G101V) (Homo sapiens (Human), UniProt P10415, G101V). In words: Molecular level activity test of anti-apoptotic protein BCL2 (G101V) (HTRF, binding to Bim peptide). The following applies: inhibition of BCL2 (G101V) binding to Bim peptide, read-out: BCL-2 (G101V). The procedure: (§1) The detection of the binding ability between anti-apoptotic protein BCL2 (G101V) and pro-apoptotic protein Bim was performed using Homogeneous Time-Resolved Fluorescence technology. The reaction of this method occurred in a white shallow 384-well plate, with a total reaction volume of 10 μL. Specifically, it included 2 μL of the compound to be tested (2% DMSO), 4 μL His-tagged recombinant protein, and 4 μL Biotin-tagged BIM protein peptide. After 1 hour of reaction, 5 L of each Anti-His and streptavidin-tagged XL665 antibody diluents diluted with a detection buffer were added. After incubating at room temperature for 4 hours, the values were read using the Envision multifunctional microplate reader to detect the effect of the compound to be tested on the binding ability of BCL2 (G101V) to BIM protein peptides.

For test [3], the target named is BCL2 (D103Y) (Homo sapiens (Human), UniProt P10415, D103Y). In words: Molecular level activity test of BCL2 (D103Y) (HTRF, binding to Bim peptide). The conditions noted are these: read-out: BCL-2 (D103Y) (nM) (inhibitory activity, IC50). On the procedure: as §1, with “BCL2 (D103Y)” for “BCL2 (G101V)”, “5 μL” for “5 L”
For test [4], the system named is RS4; 11 cells. Description: Tumor proliferation inhibitory activity test (MTS) on RS4; 11. The test is classed as cell-based. The conditions noted are these: Homo sapiens, RS4-11, 72 h, 3 days incubation. The procedure: The cell proliferation inhibitory ability of the compounds on RS4; 11 was tested using the MTS method. MTS is a tetrazolium blue salt compound that can be reduced by various dehydrogenases in live cell mitochondria to their respective colored methylzan products. Its color depth is highly correlated with the number of live cells in certain sensitive cell lines within a certain range. RS4; 11, RS4; 11 (BCL-2-G101V) and MOLT-4 tumor cells were cultivated separately and collected, 180 μL of cell suspension was added to each well in a 96-well cell plate, 20 μL of DMSO with a final concentration of 0.2% was added to the control cell wells, 20 μL of gradient diluted compounds were added to cell wells, and the treated cells were incubated in a 5% CO2 incubator at 37° C. for 3 days. After the incubation was completed, the reaction solution was prepared according to the MTS reagent kit, 20 μL was added per well and incubated in a 5% CO2 incubator at 37° C. for 3-4 hours. The absorbance value at 490 nm was read using an enzyme-linked immunosorbent assay (ELISA) plate, and the absorbance value at 690 nm was used as the background value, with OD490 nm-OD690 nm as the final raw data. The formula for calculating the inhibition ratio of compounds was as follows: inhibition ratio=(ODDMSO−ODCompound)/(ODDMSO−ODblank)×100%.

Test [5] has as its target BCL-XL (Homo sapiens (Human), UniProt Q07817). Description: BCL-XL enzyme molecular level activity test (HTRF, binding to BIM peptide). The conditions noted are these: binding of BCL-XL to BIM peptide, read-out: BCL-XL inhibitory activity (IC50). On the procedure: In a white shallow 384-well plate, a total reaction volume was 10 μL. Specifically, it included 2 μL of the compound to be tested (2% DMSO), […] His-tagged recombinant protein, and 4 μL Biotin-tagged BIM protein peptide. After 1 hour of reaction, 5 μL of each Anti-His and streptavidin-tagged XL665 antibody diluents diluted with a detection buffer were added. After incubating at room temperature for 4 hours, the values were read using the Envision multifunctional microplate reader to detect the effect of the compound to be tested on the binding ability of BCL-XL to BIM protein peptides. The Envision parameter settings were exciting light at 320 nm, and emitting light at 615 nm and 665 nm. The binding ability of anti-apoptotic proteins to Bim protein peptides was indirectly reflected by the signal ratio of 665 nm and 615 nm. In the reaction, background wells without BCL2 and active wells for full binding of recombinant proteins without compounds and Bim protein peptides were set up.

Molecules are shown by their SMILES. Read-outs that look alike come from different tables or passages of the source. Where only a bound is given, the exact number is not on record here.

BCL-XL, sequence (Q07817 whole entry): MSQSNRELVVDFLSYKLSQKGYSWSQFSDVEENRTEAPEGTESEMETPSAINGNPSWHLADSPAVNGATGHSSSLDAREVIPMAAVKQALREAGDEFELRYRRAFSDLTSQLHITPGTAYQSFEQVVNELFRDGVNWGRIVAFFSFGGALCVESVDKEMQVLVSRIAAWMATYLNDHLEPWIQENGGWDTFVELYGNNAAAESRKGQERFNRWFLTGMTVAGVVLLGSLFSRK

`CC(C)c1ccccc1[C@@H]1CCCN1C1CC2(CCN(c3cc(Oc4cnc5[nH]ccc5c4)c(C(=O)NS(=O)(=O)c4cc([N+](=O)[O-])c(NCC5(F)CCN(C6COC6)CC5)c5[nH]cnc45)cn3)CC2)C1` [compound 019, (S)-4-((1H-pyrrolo[2,3-b]pyrid-5-yl)oxy)-N-((7-(((4-fluoro-1-(oxocyclobut-3-yl)piperid-4-yl)methyl)amino)-6-nitro-1H-benzo[d]imidazol-4-yl)sulfonyl)-6-(2-(2-(2-isopropylphenyl)pyrrolidin-1-yl)-7-azaspiro[3.5]non-7-yl) nicotinamide]: the IC50 in test [1] is < 0.01 µM; in test [2], < 0.01 µM; in test [3], < 10 nM; in test [4] it was 0.0005 to 0.001 µM; in test [5] (values given in μM) it was > 1 µM.

In the case of `COc1ccc(CN2CCN(C3CC4(CCN(c5cc(Oc6cnc7[nH]ccc7c6)c(C(=O)NS(=O)(=O)c6cc([N+](=O)[O-])c(NCC7CCOCC7)c7c6OCO7)cc5F)CC4)C3)[C@H](c3ccccc3C(C)C)C2)cc1` [compound 120, (R)-2-((1H-pyrrolo[2,3-b]pyrid-5-yl)oxy)-5-fluoro-4-(2-(2-(2-isopropylphenyl)-4-(4-methoxybenzyl)piperazin-1-yl)-7-azaspiro[3.5]non-7-yl)-N-((6-nitro-7-(((tetrahydro-2H-pyran-4-yl)methyl)amino)benzo[d][1,3]dioxocyclopent-4-yl)sulfonyl)benzamide], the IC50 was < 0.01 µM in test [1]; < 0.01 µM in test [2]; < 10 nM in test [3]; 0.0005 to 0.001 µM in test [4]; 1.6 µM in test [5] (values given in μM).

Regarding `COc1ccc(CN2CCN(C3CC4(CCN(c5ccc(C(=O)NS(=O)(=O)c6cc([N+](=O)[O-])c(NCC7CCOCC7)c7c6OCO7)c(Oc6cnc7[nH]ccc7c6)c5)CC4)C3)[C@H](c3ccccc3C(C)C)C2)cc1` [compound 145, (R)-2-((1H-pyrrolo[2,3-b]pyrid-5-yl)oxy)-4-(2-(2-(2-isopropylphenyl)-4-(4-methoxybenzyl)piperazin-1-yl)-7-azaspiro[3.5]non-7-yl)-N-((6-nitro-7-(((tetrahydro-2H-pyran-4-yl)methyl)amino)benzo[d][1,3]dioxocyclopent-4-yl)sulfonyl)benzamide], the IC50 in test [1] is < 0.01 µM; in test [2], < 0.01 µM; in test [3] it was < 10 nM; in test [4] it was < 0.0005 µM; in test [5] (values given in μM), > 1 µM.

`COc1ccc(CN2CCN(C3CC4(CCN(c5ccc(C(=O)NS(=O)(=O)c6cc([N+](=O)[O-])c(NCC7CCOCC7)c7c6OCCO7)c(Oc6cnc7[nH]ccc7c6)c5)CC4)C3)[C@H](c3ccccc3C(C)C)C2)cc1` [compound 146, (R)-2-((1H-pyrrolo[2,3-b]pyrid-5-yl)oxy)-4-(2-(2-(2-isopropylphenyl)-4-(4-methoxybenzyl)piperazin-1-yl)-7-azaspiro[3.5]non-7-yl)-N-((7-nitro-8-(((tetrahydro-2H-pyran-4-yl)methyl)amino)-2,3-dihydrobenzo[b][1,4]dioxan-5-yl)sulfonyl)benzamide]: the IC50 in test [1] is < 0.01 µM; in test [2], < 0.01 µM; in test [3], < 10 nM; in test [4] it was 0.0005 to 0.001 µM; in test [5] (values given in μM) it was 2.7 µM.

With `COc1ccc(CN2CCN(C3CC4(CCN(c5cc(Oc6cnc7[nH]ccc7c6)c(C(=O)NS(=O)(=O)c6ccc(NC[C@H]7CC[C@](C)(O)CC7)c([N+](=O)[O-])c6)cc5F)CC4)C3)[C@H](c3ccccc3C(C)C)C2)cn1` [compound 236, 2-((1H-pyrrolo[2,3-b]pyrid-5-yl)oxy)-5-fluoro-N-((4-((((1r, 4r)-4-hydroxy-4-methylcyclohexyl)methyl)amino)-3-nitrophenyl)sulfonyl)-4-(2-((R)-2-(2-isopropylphenyl)-4-((6-methoxypyrid-3-yl)methyl)piperazin-1-yl)-7-azaspiro[3.5]non-7-yl)benzamide], the IC50 was < 0.01 µM in test [1]; < 0.01 µM in test [2]; < 10 nM in test [3]; 0.0005 to 0.001 µM in test [4]; > 0.5 µM in test [5] (values in nM).

`COc1ccc(CN2CCN(C3CC4(CCN(c5cc(Oc6cnc7[nH]ccc7c6)c(C(=O)NS(=O)(=O)c6ccc(NC[C@H]7CC[C@](C)(O)CC7)c([N+](=O)[O-])c6)cc5F)CC4)C3)[C@H](c3ccccc3C(C)C)C2)cc1OC` [compound 237, 2-((1H-pyrrolo[2,3-b]pyrid-5-yl)oxy)-4-(2-((R)-4-(3,4-dimethoxybenzyl)-2-(2-isopropylphenyl)piperazin-1-yl)-7-azaspiro[3.5]non-7-yl)-5-fluoro-N-((4-((((1r, 4r)-4-hydroxy-4-methylcyclohexyl)methyl)amino)-3-nitrophenyl)sulfonyl)benzamide]: the IC50 in test [1] is < 0.01 µM; in test [2], < 0.01 µM; in test [3], < 10 nM; in test [4], 0.0005 to 0.001 µM; in test [5] (values in nM), > 0.5 µM.

For `COc1ccc(CN2CCN(C3CC4(CCN(c5cc(Oc6cnc7[nH]cc(F)c7c6)c(C(=O)NS(=O)(=O)c6ccc(NCC7CCOCC7)c([N+](=O)[O-])c6)cc5F)CC4)C3)[C@H](c3ccccc3C(C)C)C2)cc1` [compound 240, (R)-5-fluoro-2-((3-fluoro-1H-pyrrolo[2,3-b]pyrid-5-yl)oxy)-4-(2-(2-(2-isopropylphenyl)-4-(4-methoxybenzyl)piperazin-1-yl)-7-azaspiro[3.5]non-7-yl)-N-((3-nitro-4-(((tetrahydro-2H-pyran-4-yl)methyl)amino)phenyl)sulfonyl)benzamide], the IC50 in test [1] is < 0.01 µM; in test [2] it was < 0.01 µM; in test [3] it was < 10 nM; in test [4], 0.0005 to 0.001 µM; in test [5] (values in nM), > 0.5 µM.

Turning to `CNCc1ccc(CN2CCN(C3CC4(CCN(c5cc(Oc6cnc7[nH]ccc7c6)c(C(=O)NS(=O)(=O)c6ccc(NCC7(F)CCOCC7)c([N+](=O)[O-])c6)cc5F)CC4)C3)[C@H](c3ccccc3C(C)C)C2)cc1` [compound 243, (R)-2-((1H-pyrrolo[2,3-b]pyrid-5-yl)oxy)-5-fluoro-N-((4-(((4-fluorotetrahydro-2H-pyran-4-yl)methyl)amino)-3-nitrophenyl)sulfonyl)-4-(2-(2-(2-isopropylphenyl)-4-(4-((methylamino)methyl)benzyl)piperazin-1-yl)-7-azaspiro[3.5]non-7-yl)benzamide], the IC50 in test [1] was < 0.01 µM; in test [2] it was < 0.01 µM; in test [3], < 10 nM; in test [4], 0.0005 to 0.001 µM; in test [5] (values in nM), > 0.5 µM.
